Laboratory results taken from ChEMBL document CHEMBL4339202, “Benzothiophene derivatives as phosphodiesterase 10A (PDE10A) inhibitors: Hit-to-lead studies” (Bioorg Med Chem Lett, 2019).

How the values were obtained:
[1] = target: cAMP and cAMP-inhibited cGMP 3',5'-cyclic phosphodiesterase 10A (Homo sapiens, UniProt Q9Y233); assay: Inhibition of human MOLT4 cell-derived PDE10A using [3H]cAMP as substrate measured after 2 hrs in presence of rolipram/milrinone by topcount method
[2] = organism: Mus musculus; assay: Inhibition of Balb/c mouse liver PDE2 at 30 ug/ml using [3H]cAMP as substrate measured after 2 hrs in presence of cGMP by topcount method relative to control
[3] = organism: Mus musculus; assay: Inhibition of Balb/c mouse liver PDE1 at 30 ug/ml using [3H]cAMP as substrate measured after 2 hrs in presence of calmodulin by topcount method relative to control
[4] = target: T1, Phosphodiesterase 7 (Homo sapiens, UniProt Q13946+Q9NP56); assay: Inhibition of human MOLT4 cell-derived PDE7 at 30 ug/ml using [3H]cAMP as substrate measured after 2 hrs in presence of rolipram/milrinone by topcount method relative to control; assay type: protein assay
T1 sequence (Q13946 whole entry, looked up): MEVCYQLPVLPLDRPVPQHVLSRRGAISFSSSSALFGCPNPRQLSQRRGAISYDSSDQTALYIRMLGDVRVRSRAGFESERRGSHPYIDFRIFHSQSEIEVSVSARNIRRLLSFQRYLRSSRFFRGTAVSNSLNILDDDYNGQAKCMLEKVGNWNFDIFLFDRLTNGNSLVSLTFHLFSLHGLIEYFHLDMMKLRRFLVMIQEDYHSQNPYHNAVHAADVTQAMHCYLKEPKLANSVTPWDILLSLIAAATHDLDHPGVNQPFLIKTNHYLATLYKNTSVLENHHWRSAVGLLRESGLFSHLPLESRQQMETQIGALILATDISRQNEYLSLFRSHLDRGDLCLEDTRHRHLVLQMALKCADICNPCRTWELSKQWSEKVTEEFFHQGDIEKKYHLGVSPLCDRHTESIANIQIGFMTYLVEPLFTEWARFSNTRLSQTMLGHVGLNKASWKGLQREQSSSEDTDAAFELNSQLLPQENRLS
T1 sequence (Q9NP56 whole entry, looked up): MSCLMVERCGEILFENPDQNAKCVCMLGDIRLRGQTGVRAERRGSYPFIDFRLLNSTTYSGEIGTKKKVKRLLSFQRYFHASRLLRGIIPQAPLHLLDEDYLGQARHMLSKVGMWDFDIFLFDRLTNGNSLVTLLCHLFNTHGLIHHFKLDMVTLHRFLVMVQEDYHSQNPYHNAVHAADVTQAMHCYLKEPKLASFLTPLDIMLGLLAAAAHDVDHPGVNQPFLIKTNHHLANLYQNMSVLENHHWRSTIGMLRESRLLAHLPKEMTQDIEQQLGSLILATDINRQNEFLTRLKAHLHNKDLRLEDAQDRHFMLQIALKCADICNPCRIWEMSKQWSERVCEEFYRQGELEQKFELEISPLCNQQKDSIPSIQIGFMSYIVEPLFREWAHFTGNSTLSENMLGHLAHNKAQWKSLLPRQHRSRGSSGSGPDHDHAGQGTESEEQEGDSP

[5] = organism: Mus musculus; assay: Inhibition of Balb/c mouse liver PDE4 at 30 ug/ml using [3H]cAMP as substrate measured after 2 hrs by topcount method relative to control
[6] = organism: Mus musculus; assay: Inhibition of Balb/c mouse lung PDE5 at 30 ug/ml using [3H]cGMP as substrate measured after 2 hrs by topcount method relative to control
[7] = target: T1, Phosphodiesterase 7; assay: Inhibition of human MOLT4 cell-derived PDE7 using [3H]cAMP as substrate measured after 2 hrs in presence of rolipram/milrinone by topcount method; assay type: protein assay
[8] = target: CYP3A4 (Homo sapiens, UniProt P08684); assay: Inhibition of CYP3A4 (unknown origin) at 10 uM relative to control; assay type: ADME
CYP3A4, sequence (P08684 whole entry): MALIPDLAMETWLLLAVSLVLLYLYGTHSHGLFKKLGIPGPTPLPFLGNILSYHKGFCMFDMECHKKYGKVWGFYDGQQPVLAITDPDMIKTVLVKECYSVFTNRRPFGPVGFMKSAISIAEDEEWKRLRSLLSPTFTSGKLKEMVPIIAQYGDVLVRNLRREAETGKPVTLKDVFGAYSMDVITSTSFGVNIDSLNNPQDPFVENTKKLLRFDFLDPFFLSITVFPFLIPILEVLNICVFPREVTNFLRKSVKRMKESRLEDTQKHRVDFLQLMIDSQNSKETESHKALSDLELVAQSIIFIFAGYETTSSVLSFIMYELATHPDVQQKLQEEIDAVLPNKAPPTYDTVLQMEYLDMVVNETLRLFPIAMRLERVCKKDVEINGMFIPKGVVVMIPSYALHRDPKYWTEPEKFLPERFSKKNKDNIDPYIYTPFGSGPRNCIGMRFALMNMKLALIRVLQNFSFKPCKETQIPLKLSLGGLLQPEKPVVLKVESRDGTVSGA

[9] = Selectivity ratio of IC50 for Balb/c mouse liver PDE4 to IC50 for human MOLT4 cell-derived PDE10A
[10] = target: hERG (KCNH2) (Homo sapiens, UniProt Q12809); assay: Inhibition of human ERG at 10 uM relative to control
hERG (KCNH2), sequence (Q12809 whole entry): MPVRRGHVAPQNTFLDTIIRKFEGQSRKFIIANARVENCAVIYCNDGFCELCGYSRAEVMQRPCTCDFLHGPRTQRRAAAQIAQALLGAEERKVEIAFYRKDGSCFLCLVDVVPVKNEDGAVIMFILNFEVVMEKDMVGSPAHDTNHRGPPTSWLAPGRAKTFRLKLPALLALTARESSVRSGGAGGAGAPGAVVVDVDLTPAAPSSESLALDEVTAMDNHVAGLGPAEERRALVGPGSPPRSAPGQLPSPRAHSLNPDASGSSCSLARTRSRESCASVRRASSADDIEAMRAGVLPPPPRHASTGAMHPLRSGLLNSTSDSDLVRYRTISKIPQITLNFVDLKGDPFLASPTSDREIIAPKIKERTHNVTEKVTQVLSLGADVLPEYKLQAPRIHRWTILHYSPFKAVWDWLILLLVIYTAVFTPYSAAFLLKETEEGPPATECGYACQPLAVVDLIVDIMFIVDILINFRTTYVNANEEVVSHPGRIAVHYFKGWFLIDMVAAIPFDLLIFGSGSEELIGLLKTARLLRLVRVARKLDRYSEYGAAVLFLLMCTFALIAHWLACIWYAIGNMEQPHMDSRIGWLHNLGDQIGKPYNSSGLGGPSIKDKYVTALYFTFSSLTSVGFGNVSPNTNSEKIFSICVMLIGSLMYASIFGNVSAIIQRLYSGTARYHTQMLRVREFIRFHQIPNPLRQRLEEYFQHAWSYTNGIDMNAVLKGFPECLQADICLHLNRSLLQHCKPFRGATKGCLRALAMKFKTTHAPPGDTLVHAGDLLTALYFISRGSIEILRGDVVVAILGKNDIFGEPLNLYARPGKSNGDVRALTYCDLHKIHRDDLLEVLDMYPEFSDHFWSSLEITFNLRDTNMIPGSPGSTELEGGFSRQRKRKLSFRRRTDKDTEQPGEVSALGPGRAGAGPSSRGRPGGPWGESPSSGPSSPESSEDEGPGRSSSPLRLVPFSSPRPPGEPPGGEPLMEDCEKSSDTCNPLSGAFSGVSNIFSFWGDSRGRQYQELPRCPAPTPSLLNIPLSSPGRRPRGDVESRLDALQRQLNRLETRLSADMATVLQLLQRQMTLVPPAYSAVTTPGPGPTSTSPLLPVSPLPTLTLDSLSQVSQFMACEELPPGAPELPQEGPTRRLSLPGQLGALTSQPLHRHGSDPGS

[11] = Inhibition of Balb/c mouse liver PDE1 using [3H]cAMP as substrate measured after 2 hrs in presence of calmodulin by topcount method
[12] = target: CYP2D6 (Homo sapiens, UniProt P10635); assay: Inhibition of CYP2D6 (unknown origin) at 10 uM relative to control; assay type: ADME
CYP2D6, sequence (P10635 whole entry): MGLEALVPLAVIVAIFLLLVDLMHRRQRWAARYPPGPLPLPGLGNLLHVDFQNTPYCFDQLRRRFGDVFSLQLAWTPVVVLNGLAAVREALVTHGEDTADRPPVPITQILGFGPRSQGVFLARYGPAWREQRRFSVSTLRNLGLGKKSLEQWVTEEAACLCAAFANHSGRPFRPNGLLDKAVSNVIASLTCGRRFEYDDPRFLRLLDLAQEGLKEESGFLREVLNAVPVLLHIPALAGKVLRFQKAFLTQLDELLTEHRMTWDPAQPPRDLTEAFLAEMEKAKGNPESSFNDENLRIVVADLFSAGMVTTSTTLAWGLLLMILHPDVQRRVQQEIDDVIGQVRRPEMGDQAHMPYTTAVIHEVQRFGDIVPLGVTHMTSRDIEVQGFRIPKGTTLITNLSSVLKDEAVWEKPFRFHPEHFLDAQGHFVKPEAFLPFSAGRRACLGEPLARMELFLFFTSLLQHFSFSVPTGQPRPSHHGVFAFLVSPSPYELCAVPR

[13] = organism: Homo sapiens; assay: Selectivity ratio of IC50 for human MOLT4 cell-derived PDE7 to IC50 for human MOLT4 cell-derived PDE10A
[14] = Inhibition of Balb/c mouse liver PDE4 using [3H]cAMP as substrate measured after 2 hrs by topcount method
[15] = Selectivity ratio of IC50 for Balb/c mouse liver PDE2 to IC50 for human MOLT4 cell-derived PDE10A
[16] = Selectivity ratio of IC50 for Balb/c mouse lung PDE5 to IC50 for human MOLT4 cell-derived PDE10A
[17] = Inhibition of Balb/c mouse liver PDE2 using [3H]cAMP as substrate measured after 2 hrs in presence of cGMP by topcount method
[18] = Inhibition of Balb/c mouse lung PDE5 using [3H]cGMP as substrate measured after 2 hrs by topcount method
[19] = Selectivity ratio of IC50 for Balb/c mouse liver PDE1 to IC50 for human MOLT4 cell-derived PDE10A

cAMP and cAMP-inhibited cGMP 3',5'-cyclic phosphodiesterase 10A, sequence (Q9Y233 whole entry): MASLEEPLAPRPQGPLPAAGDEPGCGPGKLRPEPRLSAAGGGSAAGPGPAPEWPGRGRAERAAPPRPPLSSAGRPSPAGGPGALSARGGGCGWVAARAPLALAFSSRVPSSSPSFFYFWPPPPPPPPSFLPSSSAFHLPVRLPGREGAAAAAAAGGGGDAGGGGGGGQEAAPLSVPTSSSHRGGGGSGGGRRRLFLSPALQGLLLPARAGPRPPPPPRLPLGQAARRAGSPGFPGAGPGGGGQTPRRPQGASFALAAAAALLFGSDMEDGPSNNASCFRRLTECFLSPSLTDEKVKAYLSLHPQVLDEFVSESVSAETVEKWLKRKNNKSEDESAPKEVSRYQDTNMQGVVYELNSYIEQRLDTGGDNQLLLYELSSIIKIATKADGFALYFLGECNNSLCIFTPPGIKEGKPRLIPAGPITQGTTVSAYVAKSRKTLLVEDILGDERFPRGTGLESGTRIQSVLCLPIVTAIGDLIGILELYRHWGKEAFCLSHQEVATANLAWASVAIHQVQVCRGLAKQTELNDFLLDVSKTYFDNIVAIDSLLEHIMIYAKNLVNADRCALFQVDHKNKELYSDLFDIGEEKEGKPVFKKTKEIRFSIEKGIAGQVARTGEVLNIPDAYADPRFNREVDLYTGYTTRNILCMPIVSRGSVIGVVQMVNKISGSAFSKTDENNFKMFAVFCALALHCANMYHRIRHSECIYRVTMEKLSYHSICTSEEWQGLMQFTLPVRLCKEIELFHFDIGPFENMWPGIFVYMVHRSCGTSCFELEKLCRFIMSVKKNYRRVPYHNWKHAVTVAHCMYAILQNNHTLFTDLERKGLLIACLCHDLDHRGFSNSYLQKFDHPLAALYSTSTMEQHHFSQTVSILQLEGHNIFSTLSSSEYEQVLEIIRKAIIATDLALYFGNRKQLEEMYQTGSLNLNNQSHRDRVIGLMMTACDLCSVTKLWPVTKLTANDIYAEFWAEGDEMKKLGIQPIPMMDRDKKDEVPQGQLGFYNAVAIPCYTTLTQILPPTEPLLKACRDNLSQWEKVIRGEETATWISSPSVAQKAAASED

In the case of `Cc1c(C(=O)Nc2ccc3ccccc3n2)sc2c(-c3ccccn3)cccc12`, the IC50 [1] is reported as 62 nM.
In the case of `Cc1c(C(=O)Nc2ccc3ccccc3n2)sc2c(-c3ccoc3)cccc12`, the IC50 [1] is reported as 320 nM.
Work on `CC(=O)c1ccc(C(C)=O)c2sc(C(=O)Nc3cc(C(C)(C)O)c4ccccc4n3)cc12` yielded an IC50 [1] of 13 nM.
Work on `O=C(Nc1cc2cccccc-2n1)/C(=C/c1ccccc1)c1ccccc1` yielded an inhibition [2] of 25 to 50%, an IC50 [1] of 510 nM and an inhibition [3] of 25 to 50%. It also gave an inhibition [4] of under 25%, an inhibition [5] of 25 to 50% and an inhibition [6] of 25 to 50%.
With `Cc1c(C(=O)Nc2ccc3ccccc3n2)sc2c(C(N)=O)cccc12` the IC50 [1] was 23 nM.
Work on `CC(=O)c1cccc2c(C)c(C(=O)Nc3ccc4ccccc4n3)sc12` yielded an IC50 [7] of over 10 µM, an inhibition at 10 µM [8] of 0% and a Ratio IC50 [9] of over 1300. The inhibition at 10 µM [10] was 10%, the IC50 [11] was over 10 µM and the inhibition at 10 µM [12] was 0%. It also gave a Ratio IC50 [13] of over 1300, an IC50 [14] of over 10 µM and an IC50 [1] of 7.6 nM. For the same molecule, the Ratio IC50 [15] was over 1300, the Ratio IC50 [16] was over 1300 and the IC50 [17] was over 10 µM. It also gave an IC50 [18] of over 10 µM and a Ratio IC50 [19] of over 1300.
In the case of `O=C(Nc1ccc2ccccc2n1)c1cc2cccc(-c3ccncc3)c2s1`, the IC50 [1] is reported as 47 nM.
Work on `CNC(=O)c1cccc2c(C)c(C(=O)Nc3ccc4ccccc4n3)sc12` yielded an IC50 [1] of 23 nM.
Work on `Cc1c(C(=O)Nc2ccc3ccccc3n2)sc2c(C#N)cccc12` yielded an IC50 [1] of 110 nM.
`Cc1c(C(=O)Nc2ccc3ccccc3n2)sc2c(-c3cccnc3)cccc12` showed an IC50 [1] of 120 nM.
For `O=C(Nc1ccc2ccccc2n1)/C(=C/c1ccccc1)c1ccccc1`, the inhibition [2] was under 25%, the IC50 [1] was 440 nM and the inhibition [3] was under 25%. It also gave an inhibition [4] of under 25%, an inhibition [5] of under 25% and an inhibition [6] of under 25%.
`CCc1c(C(=O)Nc2ccc3ccccc3n2)sc2c(-c3ccncc3)cccc12` gave an IC50 [1] of 5.2 nM.
`Cc1c(C(=O)Nc2ccc3ccccc3n2)sc2c(-c3ccncc3)cccc12` gave an inhibition at 10 µM [8] of 1%, an inhibition at 10 µM [10] of 36% and an inhibition at 10 µM [12] of 45%. For the same molecule, the IC50 [1] was 4.7 nM.
Work on `Cc1c(C(=O)Nc2ccc3ccccc3n2)sc2c(C(=O)N(C)C)cccc12` yielded an IC50 [1] of 44 nM.
Molecule `Cc1c(C(=O)Nc2ccc3ccccc3n2)sc2c(I)cccc12` has an IC50 [1] of 200 nM.
